Assay results reported in paper PMC8861431, “Tissue Pharmacokinetic Properties and Bystander Potential of Hypoxia-Activated Prodrug CP-506 by Agent-Based Modelling” (Frontiers in Pharmacology, 2022).
Where two headings read alike, the source gives them in different places.

Key:
[1] = tested on: POR-overexpressing HCT-116 cells (POR-R) monolayer; conditions: cited from earlier work
[2] = tested on: PORko-G cell line (POR-knockout HCT-116); assay: Anti-proliferative IC50 assay (SRB); type: cell-based, human; conditions: for IC50: Homo sapiens, HCT-116, 4 h exposure
Source text: (§1) The HCT-116 cell line was purchased from the American Type Culture Collection (Manassas, VA). A POR-overexpressing clone (POR-R) was generated by transfecting the parental cell line with a pBRP expression vector encoding an N-terminal truncated soluble version of the human POR gene ([Foehrenbacher et al., 2013a]; [Guise et al., 2020]). Ectopic expression is driven by the human cytomegalovirus (CMV) major immediate-early promoter. Downstream of POR is a human elongation factor-1 alpha (EF-1 alpha) promoter, which drives expression of mRuby and the puromycin resistance gene pac (puromycin N-acetyltransferase). A POR-null clone (PORG-ko) was generated as previously described ([Su et al., 2013]). POR-null clones were then transfected with a pEGFP-N1 plasmid encoding enhanced green fluorescent protein (EGFP) and geneticin resistance to permit identification upon co-culture ([Hong et al., 2018b]). Cell lines were maintained by weekly subculture in T-flasks containing alpha minimal essential medium (αMEM) with 5% foetal bovine serum (FBS) for a maximum of 24 passages or 90 days (whichever came first). The culture medium was further supplemented with 1 mg/ml geneticin or 2 µM puromycin for the routine maintenance of the POR-null and POR-overexpressing clones respectively. All cultures were re-established from STR-authenticated, mycoplasma negative frozen stocks.
(§2) Cells (700–1,000 per well) were seeded with 100 µl culture medium into 96-well plates and left to attach for 2 h in a humidified 37°C incubator. Compounds were prepared in culture medium and serially diluted (1:3) in the well volume. Plates were returned to a humidified 37°C incubator for the duration of the drug exposure (4 h). Aerobic experiments were performed under standard tissue culture conditions (21% O2), and the anoxic experiments were performed in parallel in a 5% H2/Pd catalyst anaerobic chamber (Shellab Bactron, Sheldon manufacturing Inc., Cornelius, OR) using pre-equilibrated media and plasticware. All anoxia experiments were conducted using a catalyst-scrubbed anaerobic chamber, unless otherwise specified, with gas oxygen measurements of <1 ppm O2. Cells were then washed three times and left to grow for 96 h before cell density determination using a sulforhodamine B (SRB) assay ([Vichai and Kirtikara, 2006]). To this end, the cells were fixed by layering 50 µl of trichloroacetic acid (40% w/v in MilliQ water) on top of the culture media (150 µl) in each well for 1 h at 4°C. Plates were rinsed under running tap water and stained with 50 µl of SRB (0.4% w/v in MilliQ water containing 1% v/v acetic acid) for 30 min at room temperature. Plates were rapidly destained by rinsing three times in tap water containing 1% (v/v) acetic acid. The stain was solubilized by adding 100 µl of 10 mM unbuffered Tris base to each well with gentle rocking for 1 h. Plates were read on a Biotek ELx808 Absorbance Microplate Reader at 490 nm using KC4 software. The IC50 value (concentration required to reduce staining to 50% of the untreated control on the same plate) for each compound was determined by interpolation using a 4-parameter logistic regression model.

[3] = tested on: POR-R cell line (POR-overexpressing HCT-116); assay: Anti-proliferative IC50 assay (SRB); type: cell-based, human; conditions: for IC50: Homo sapiens, HCT-116, 4 h exposure
Source text: as §1, §2

[4] = tested on: HCT-116 WT cell line; assay: Anti-proliferative IC50 assay (SRB); type: cell-based, human; conditions: for IC50: Homo sapiens, 4 h exposure
Source text: as §1, §2

[5] = tested on: HCT-116 WT cell line; assay: Monolayer clonogenic assay; type: cell-based; conditions: Homo sapiens; HCT-116 WT monolayer; 4 h exposure, <1 ppm O2; read-out: Clonogenic IC50 under anoxia
Experimental: Cells (4.8 x 10^5 cells) were seeded with 2 ml culture medium into 6-well plates and left to attach for 2 h in a humidified 37°C incubator. Compounds were then prepared in culture medium and added in a 500 µl volume to each well. Plates were returned to a humidified 37°C incubator for the duration of the drug exposure (4 h). Aerobic and anoxic experiments were performed as described above. Plates were then removed from the anaerobic chamber and processed alongside the aerobic cultures. Cells were detached from monolayer by trypsinisation and plated at serial dilutions in 6-well plates. Cells were left to grow in a standard 37°C incubator for 10 days until the controls formed discrete colonies comprised of at least 50 cells. Colonies were visualized by staining with methylene blue (2 g/L in 50% aqueous ethanol) for 30 min. The number of colonies with at least 50 cells was manually counted to determine the plating efficiency. The surviving fraction was determined as the ratio of plating efficiency of treated cells to that of the controls.

[6] = Table 1 footnote d: assumed equivalent to measured metabolites or derived from published estimates for PR-104A metabolites, ref Foehrenbacher et al., 2013a, Hong et al., 2018b
[7] = Table S3, fixed to fitted values for downstream metabolites of PR-104 ('metabolite 2'), ref (2,3)
[8] = anoxic <1 ppm O2, 96 h drug-free proliferation, read-out: Anoxic IC50 (anti-proliferative)
[9] = normoxic 21% O2, 96 h drug-free proliferation, read-out: Aerobic IC50 (anti-proliferative)

SMILES	k in: rate constant for transfer from the extracellular to intracellular volume [1, 6]	k out: rate constant for transfer from the intracellular to extracellular volume [1, 6]	T1/2: time required to reduce the concentration to half its initial value [1, 7] [min]	kin: rate of transfer from the extracellular to the intracellular compartment [1, 7] [min⁻¹]	kout: rate of transfer from the intracellular to the extracellular compartment [1, 7] [min⁻¹]	IC50 ([2]; PORko-G, anoxic <1 ppm O2, 96 h drug-free proliferation, read-out: Anoxic IC50 (anti-proliferative)) [µM]	IC50 ([2]; PORko-G, normoxic 21% O2, 96 h drug-free proliferation, read-out: Aerobic IC50 (anti-proliferative)) [µM]	Fold lower IC50 under anoxic vs aerobic conditions ([2]; PORko-G, anti-proliferative assay) [fold]	Differential in anoxic sensitivity between PORko-G and POR-R cell lines ([2]; anti-proliferative assay, anoxia) [fold]	IC50 [3, 8] [µM]	IC50 [3, 9] [µM]	Fold lower IC50 under anoxic vs aerobic conditions ([3]; anti-proliferative assay) [fold]	IC50 [4, 8] [µM]	IC50 [4, 9] [µM]	Fold lower IC50 under anoxic vs aerobic conditions ([4]; anti-proliferative assay) [fold]	IC50 [5] [µM]
CCN1CCN(C(=O)c2cc(N(CCCl)CCCl)c(S(C)(=O)=O)cc2N)CC1 [CP-506M-Cl2, (2-Amino-5-(bis(2-chloroethyl)amino)-4-(methylsulfonyl)phenyl)(4-ethylpiperazin-1-yl)methanone]	0.9 ^d min^−1	0.3 ^d min^−1	6.6	0.9	0.3											
CCN1CCN(C(=O)c2cc(N(CCBr)CCOS(C)(=O)=O)c(S(C)(=O)=O)cc2[N+](=O)[O-])CC1 [CP-506, 2-[(2-bromoethyl)-5-[(4-ethyl-1-piperazinyl)carbonyl]-2-(methylsulfonyl)-4-nitroanilino]ethyl methanesulfonate]						33.1 ± 5.6	240 ± 26	7.3	13	2.5 ± 0.3	120 ± 13	48.6	12.8 ± 3.7	257 ± 37	20.1	7.4 ± 0.5
